From paper PMC6923798 (Bioorganic chemistry, 2018)

Experiments:
Format in all cases: cell-based, human
OVCAR-4 = test: NCI in vitro five dose anticancer assay
NCI-H322M = test: NCI in vitro five dose anticancer assay; details: 48 h
MDA-MB-468 = test: NCI in vitro five dose anticancer assay
COLO 205 = test: NCI in vitro five dose anticancer assay
KG-1a = test: MTT anti-proliferative assay; details: Homo sapiens, KG-1a, 24 h, read-out: IC50 ± SD, KG-1a
K-562 = test: MTT anti-proliferative assay; details: Homo sapiens, K562, 24 h, read-out: IC50 ± SD, K-562
SF-268 = test: NCI in vitro five dose anticancer assay
SK-OV-3 = test: NCI in vitro five dose anticancer assay
CCRF-CEM = test: NCI in vitro five dose anticancer assay; details: 48 h

`COc1ccc(C=CC(=O)c2ccc(NC(=O)CSc3nnc(-c4cc(OC)c(OC)c(OC)c4)o3)cc2)cc1` [Compound 8v, N-(4-(3-(4-Methoxyphenyl)acryloyl)phenyl)-2-((5-(3,4,5-trimethoxy-phenyl)-1,3,4-oxadiazol-2-yl)thio)acetamide] was tested, and the GI50 (OVCAR-4; Homo sapiens, OVCAR-4, 48 h) was 2000 nM, the TGI (OVCAR-4; OVCAR-4, Ovarian Cancer, five dose, 48 h, SRB) was 4620 nM and the GI50 (NCI-H322M; Homo sapiens) was 1590 nM. For the same compound, the TGI (NCI-H322M; Non-Small Cell Lung Cancer, five dose, SRB) was 2980 nM, the GI50 (MDA-MB-468; Homo sapiens, MDA-MB-468, 48 h) was 2100 nM and the TGI (MDA-MB-468; MDA-MB-468, Breast cancer, five dose, 48 h, SRB) was 5020 nM. It also gave a TGI (COLO 205; COLO 205, Colon Cancer, five dose, 48 h, SRB) of 3840 nM, a GI50 (COLO 205; Homo sapiens, COLO 205, 48 h) of 1940 nM and an IC50 (KG-1a) of 3450 ± 250 nM. For the same compound, the IC50 (K-562) was 1950 ± 180 nM, the GI50 (SF-268; Homo sapiens, SF-268, 48 h) was 1790 nM and the TGI (SF-268; SF-268, CNS cancer, five dose, 48 h, SRB) was 3960 nM. The GI50 (SK-OV-3; Homo sapiens, SK-OV-3, 48 h) was 2420 nM, the TGI (SK-OV-3; SK-OV-3, Ovarian Cancer, five dose, 48 h, SRB) was 5680 nM and the GI50 (CCRF-CEM; Homo sapiens) was 1840 nM. The TGI (CCRF-CEM; Leukemia, five dose, SRB) was 4560 nM.
